Measurements published in US7414070B2, “Indol-7-YL sulfonamide derivatives, their preparation and their use in pharmaceutical compositions” (Laboratorios del Dr. ESTEVE S.A., priority 2003, dated 2008).
Counter-ions that a name gives are not always drawn.

| Structure (SMILES) | melting point |
| --- | --- |
| O=S(=O)(Nc1cccc2ccn(CCN3CCCC3)c12)c1c(Cl)nc2sccn12 (as salt: TFA) [Example 7, 6-chloro-N-(1-(2-(pyrrolidin-1-yl)ethyl)-1H-indol-7-yl)imidazo[2,1-b]thiazole-5-sulfonamide] | 92 to 95 °C |
| Cc1c(S(=O)(=O)Nc2cccc3ccn(CCN(C)C)c23)sc2ccc(Cl)cc12 [Example 2, N-[1-(2-dimethylaminoethyl)-1H-indole-7-yl]-5-chloro-3-methyl-benzo[b]thiophene-2-sulfonamide] | 57 to 65 °C |
| CN(C)CCn1ccc2cccc(NS(=O)(=O)c3ccc(-c4ccccc4)cc3)c21 [Example 3, N-[1-(2-dimethylaminoethyl)-1H-indole-7-yl]-4 phenylbenzenesulfonamide] | 137 to 140 °C |
| CN(C)CCn1ccc2cccc(NS(=O)(=O)c3c(Cl)nc4sccn34)c21 [Example 4, N-[1-(2-dimethylaminoethyl)-1H-indole-7-yl]-6-chloroimidazo[2,1-b]thiazole-5-sulfonamide] | 73 to 76 °C |
| O=S(=O)(Nc1cccc2ccn(CCN3CCCC3)c12)c1cccc2ccccc12 [Example 6, N-(1-(2-(pyrrolidin-1-yl)ethyl)-1H-indol-7-yl)naphthalene-1-sulfonamide] | 196 to 199 °C |
| O=S(=O)(CCc1cccc2ccccc12)Nc1cccc2ccn(CCN3CCCC3)c12 [Example 8, 2-(naphth-1-yl)-N-(1-(2-(pyrrolidin-1-yl)ethyl)-1H-indol-7-yl)ethansulfonamide] | 46 to 49 °C |
